Data: US11078202B2, “β-lactamase inhibitor and use thereof” (priority 2018, dated 2021)
Counter-ions that a name gives are not always drawn.

Columns and labels:
Assay type in all cases: cell-based
[1] = test system: Pseudomonas aeruginosa XNWB 0008; assay: MIC assay of test compounds combined with ceftazidime (8 μg/mL); conditions: ceftazidime 8 μg/mL fixed
Method: (§1) The bacterial strains used for the minimum inhibitory concentration (MIC) test were frozen in a −80° C. ULT freezer and thawed 2 days before use. A small amount of frozen bacterial strains were scraped using a sterile inoculating loop, streaked onto a TSA solid culture dish for inoculation, and then cultured for 20-24 h at 35±2° C. in a normal atmospheric environment. 5-10 colonies with similar morphology were picked from the culture dish using a sterile inoculating loop and then re-streaked onto a suitable solid culture dish. Then the dish was placed into a normal incubator for culture for 20-24 h at 35±2° C. 5-10 single bacterial colonies were picked from the solid culture dish, resuspended in 500 μL of 0.9% NaCl, and adjusted to an OD600 of 0.1-0.15 with a spectrophotometer. The bacteria were then diluted 300-fold with 1.1×CAMHB. […] Dilution of test compounds: […] 2 μL of each compound in the dilution master plate of the test compounds was transferred to the corresponding well of the assay plates. In the mean time, 2 μL of 100% DMSO was transferred to the compound-free wells (GC and SC wells). (1) 8 μL of imipenem in the additive plate of imipenem was transferred to the corresponding wells of the assay plates; (2) 8 μL of ceftazidime in the additive plate of ceftazidime was transferred to the corresponding wells of the assay plates; (3) 8 μL of ampicillin in the additive plate of ampicillin was transferred to the corresponding wells of the assay plates. 90 μL of corresponding bacterial inocula were added to wells (except for SC wells) of the assay plates. After addition, the 6 assay plates were covered by sterile covers. The mixtures in the assay plates were centrifuged by a centrifuge at 1000 rpm for 30 s, and mixed uniformly by oscillating with a microplate oscillator at 800 rpm for 1 min, and then cultured in a common incubator for 16-20 h at 35±2° C. The minimum inhibitory concentration of each compound was recorded by reference to guidelines from the Clinical and Laboratory Standards Institute. […] The effect of the test compounds in combination with imipenem, ceftazidime, and ampicillin was also tested. […] The bacterial inocula in the assay plates were resuscitated from TSA and diluted in CAMHB, while growth controls (GC wells) and sterile controls (SC wells) were set up in the assay plates. The minimum inhibitory concentration of each compound combination against different bacteria was observed and recorded after the assay plates were incubated in a common incubator at 35±2° C. for 16-20 h, and the results are shown in Tables 1-3.

[2] = test system: Acinetobacter baumannii XNWB 0007; assay: as above; conditions: ceftazidime 8 μg/mL fixed
Method: as §1

[3] = test system: Klebsiella pneumoniae XNWB 0002; assay: as above; conditions: ceftazidime 8 μg/mL fixed
Method: as §1

[4] = test system: Klebsiella pneumoniae XNWB 0006; assay: as above; conditions: ceftazidime 8 μg/mL fixed
Method: as §1

[5] = test system: Klebsiella pneumoniae XNWB 0005; assay: as above; conditions: ceftazidime 8 μg/mL fixed
Method: as §1

[6] = test system: Klebsiella pneumoniae XNWB 0003; assay: as above; conditions: ceftazidime 8 μg/mL fixed
Method: as §1

[7] = test system: Klebsiella pneumoniae XNWB 0004; assay: as above; conditions: ceftazidime 8 μg/mL fixed
Method: as §1

[8] = test system: Klebsiella pneumoniae XNWB 0001; assay: as above; conditions: ceftazidime 8 μg/mL fixed
Method: as §1

[9] = test system: Pseudomonas aeruginosa XNWB 0008; assay: MIC assay of test compounds combined with imipenem (4 μg/mL); conditions: imipenem 4 μg/mL fixed
Method: as §1

[10] = test system: Acinetobacter baumannii XNWB 0007; assay: as above; conditions: imipenem 4 μg/mL fixed
Method: as §1

[11] = test system: Klebsiella pneumoniae XNWB 0002; assay: as above; conditions: imipenem 4 μg/mL fixed
Method: as §1

[12] = test system: Klebsiella pneumoniae XNWB 0006; assay: as above; conditions: imipenem 4 μg/mL fixed
Method: as §1

[13] = test system: Klebsiella pneumoniae XNWB 0005; assay: as above; conditions: imipenem 4 μg/mL fixed
Method: as §1

[14] = test system: Klebsiella pneumoniae XNWB 0003; assay: as above; conditions: imipenem 4 μg/mL fixed
Method: as §1

[15] = test system: Klebsiella pneumoniae XNWB 0004; assay: as above; conditions: imipenem 4 μg/mL fixed
Method: as §1

[16] = test system: Klebsiella pneumoniae XNWB 0001; assay: as above; conditions: imipenem 4 μg/mL fixed
Method: as §1

| SMILES | The minimum concentration of test compounds combined with ceftazidime (8 μg/mL) for bacteriostasis [1] | The minimum concentration of test compounds combined with ceftazidime (8 μg/mL) for bacteriostasis [2] | The minimum concentration of test compounds combined with ceftazidime (8 μg/mL) for bacteriostasis [3] | The minimum concentration of test compounds combined with ceftazidime (8 μg/mL) for bacteriostasis [4] | The minimum concentration of test compounds combined with ceftazidime (8 μg/mL) for bacteriostasis [5] | The minimum concentration of test compounds combined with ceftazidime (8 μg/mL) for bacteriostasis [6] | The minimum concentration of test compounds combined with ceftazidime (8 μg/mL) for bacteriostasis [7] | The minimum concentration of test compounds combined with ceftazidime (8 μg/mL) for bacteriostasis [8] | The minimum concentration of test compounds combined with imipenem (4 μg/mL) for bacteriostasis [9] | The minimum concentration of test compounds combined with imipenem (4 μg/mL) for bacteriostasis [10] | The minimum concentration of test compounds combined with imipenem (4 μg/mL) for bacteriostasis [11] | The minimum concentration of test compounds combined with imipenem (4 μg/mL) for bacteriostasis [12] | The minimum concentration of test compounds combined with imipenem (4 μg/mL) for bacteriostasis [13] | The minimum concentration of test compounds combined with imipenem (4 μg/mL) for bacteriostasis [14] | The minimum concentration of test compounds combined with imipenem (4 μg/mL) for bacteriostasis [15] | The minimum concentration of test compounds combined with imipenem (4 μg/mL) for bacteriostasis [16] |
| --- | --- | --- | --- | --- | --- | --- | --- | --- | --- | --- | --- | --- | --- | --- | --- | --- |
| N=C(N)NCc1cc([C@@H]2CC3(CC3)[C@@H]3CN2C(=O)N3OS(=O)(=O)O)no1 [Example 34, (1R,4S)-4-(5-(guanidinomethyl)isoxazol-3-yl)-6-oxo-5,7-diazaspiro[bicyclo[3.2.1]octane-2,1′-cyclopropan]-7-yl sulfate] | C (C: 16-128 μg/mL) | C (C: 16-128 μg/mL) | A (A: <8 μg/mL) | A (A: <8 μg/mL) | B (B: 8-16 μg/mL) | A (A: <8 μg/mL) | B (B: 8-16 μg/mL) | A (A: <8 μg/mL) | B (B: 8-16 μg/mL) | B (B: 8-16 μg/mL) | A (A: <8 μg/mL) | A (A: <8 μg/mL) | A (A: <8 μg/mL) | A (A: <8 μg/mL) | A (A: <8 μg/mL) | A (A: <8 μg/mL) |
| O=C(NC1CNC1)[C@@H]1CC2(CC2)[C@@H]2CN1C(=O)N2OS(=O)(=O)O [Example 29, (1R,4S)-4-(azetidin-3-ylaminoformyl)-6-oxo-5,7-diazaspiro[bicyclo[3.2.1]octane-2,1′-cyclopropan]-7-yl sulfate] | B (B: 8-16 μg/mL) | C (C: 16-128 μg/mL) | A (A: <8 μg/mL) | A (A: <8 μg/mL) | A (A: <8 μg/mL) | A (A: <8 μg/mL) | A (A: <8 μg/mL) | A (A: <8 μg/mL) | A (A: <8 μg/mL) | C (C: 16-128 μg/mL) | A (A: <8 μg/mL) | A (A: <8 μg/mL) | A (A: <8 μg/mL) | A (A: <8 μg/mL) | A (A: <8 μg/mL) | A (A: <8 μg/mL) |
| O=C1N2C[C@H](N1OS(=O)(=O)O)C1(CC1)C[C@H]2c1cc(CC2CNC2)on1 [Example 49, (1R,4S)-4-(5-(azetidin-3-ylmethyl)isoxazol-3-yl)-6-oxo-5,7-diazaspiro[bicycle[3.2.1]octane-2,1′-cyclopropan]-7-yl sulfate] | B (B: 8-16 μg/mL) | C (C: 16-128 μg/mL) | A (A: <8 μg/mL) | A (A: <8 μg/mL) | A (A: <8 μg/mL) | A (A: <8 μg/mL) | B (B: 8-16 μg/mL) | A (A: <8 μg/mL) | A (A: <8 μg/mL) | C (C: 16-128 μg/mL) | A (A: <8 μg/mL) | A (A: <8 μg/mL) | A (A: <8 μg/mL) | A (A: <8 μg/mL) | A (A: <8 μg/mL) | A (A: <8 μg/mL) |
| NCC(O)c1nnc([C@@H]2CC3(CC3)[C@@H]3CN2C(=O)N3OS(=O)(=O)O)o1 (stereo partly drawn) [Example 9, (1R,4S)-4-(5-(2-amino-1-hydroxyethyl)-1,3,4-oxadiazol-2-yl)-6-oxo-5,7-diazaspiro [bicyclo[3.2.1]octane-2,1′-cyclopropan]-7-yl sulfate] | B (B: 8-16 μg/mL) | C (C: 16-128 μg/mL) | A (A: <8 μg/mL) | A (A: <8 μg/mL) | A (A: <8 μg/mL) | A (A: <8 μg/mL) | A (A: <8 μg/mL) | A (A: <8 μg/mL) | A (A: <8 μg/mL) | A (A: <8 μg/mL) | A (A: <8 μg/mL) | A (A: <8 μg/mL) | A (A: <8 μg/mL) | A (A: <8 μg/mL) | A (A: <8 μg/mL) | A (A: <8 μg/mL) |
